Active and inactive are the calls of the source.
Columns and labels:
cells [1] = assay type: functional, cell-based
[2] = molecular target: T1, Nuclear receptor subfamily 0 group B member 1 (Homo sapiens, UniProt P51843); assay type: functional, cell-based;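 further: HEK293T cells transfected with SF-1 and DAX-1 plus StAR promoter luciferase reporter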
T1 sequence (P51843 whole entry): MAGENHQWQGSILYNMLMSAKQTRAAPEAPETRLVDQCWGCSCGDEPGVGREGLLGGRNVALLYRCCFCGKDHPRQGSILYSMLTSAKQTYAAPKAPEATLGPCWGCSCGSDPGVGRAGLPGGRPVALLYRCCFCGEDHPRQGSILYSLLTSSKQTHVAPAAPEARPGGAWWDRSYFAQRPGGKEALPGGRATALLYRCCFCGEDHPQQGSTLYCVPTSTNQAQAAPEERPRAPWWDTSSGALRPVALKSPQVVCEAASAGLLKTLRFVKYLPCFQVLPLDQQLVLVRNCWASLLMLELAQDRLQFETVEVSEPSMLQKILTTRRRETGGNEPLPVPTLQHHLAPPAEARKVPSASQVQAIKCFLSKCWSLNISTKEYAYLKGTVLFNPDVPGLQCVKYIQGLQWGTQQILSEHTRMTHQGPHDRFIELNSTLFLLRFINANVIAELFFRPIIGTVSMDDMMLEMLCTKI

[3] = molecular target: T2, Orexin/Hypocretin receptor type 1 (Homo sapiens, UniProt O43613); test: (§1) Fluorescence-based cell-based high throughput dose response assay for antagonists of the orexin 1 receptor (OX1R; HCRTR1). [Related pubchem assays (depositor defined):AID434989, AID435008, AID463079, AID485270, AID492963, AID492964, AID492965, AID493232, AID504717, AID504718]; assay type: functional
T2 sequence (O43613 whole entry): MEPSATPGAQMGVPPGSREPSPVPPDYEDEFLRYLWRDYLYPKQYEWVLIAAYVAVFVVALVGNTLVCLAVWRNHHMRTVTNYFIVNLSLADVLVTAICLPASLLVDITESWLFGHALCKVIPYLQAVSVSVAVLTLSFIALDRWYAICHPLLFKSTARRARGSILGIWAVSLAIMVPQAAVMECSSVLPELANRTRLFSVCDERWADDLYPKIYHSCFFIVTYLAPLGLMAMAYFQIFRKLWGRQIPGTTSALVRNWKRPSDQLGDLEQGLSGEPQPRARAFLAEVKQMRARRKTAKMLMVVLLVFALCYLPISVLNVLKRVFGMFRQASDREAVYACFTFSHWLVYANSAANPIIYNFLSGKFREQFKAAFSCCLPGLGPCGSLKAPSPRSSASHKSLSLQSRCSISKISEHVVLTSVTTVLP

Orexin receptor type 2 [4] = molecular target: T3, Orexin receptor type 2 (Homo sapiens, UniProt O43614); test: Counterscreen assay for antagonists of the orexin 1 receptor (OX1R; HCRTR1): Fluorescence-based cell-based dose response assay for antagonists of the orexin 2 receptor (OX2R; HCRTR2), run by assay provider.; assay type: functional
T3 sequence (O43614 whole entry): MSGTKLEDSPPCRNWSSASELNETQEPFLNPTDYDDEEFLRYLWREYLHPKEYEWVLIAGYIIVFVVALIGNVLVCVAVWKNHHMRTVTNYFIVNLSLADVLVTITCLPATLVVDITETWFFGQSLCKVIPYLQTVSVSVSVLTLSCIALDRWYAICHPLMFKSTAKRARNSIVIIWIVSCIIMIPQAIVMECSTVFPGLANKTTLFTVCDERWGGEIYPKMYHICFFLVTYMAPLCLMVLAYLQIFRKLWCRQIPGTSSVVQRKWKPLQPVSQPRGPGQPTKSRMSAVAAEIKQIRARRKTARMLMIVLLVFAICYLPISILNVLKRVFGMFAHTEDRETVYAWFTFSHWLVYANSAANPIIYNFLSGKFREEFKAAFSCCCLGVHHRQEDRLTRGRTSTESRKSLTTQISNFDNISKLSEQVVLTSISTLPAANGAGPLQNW

H4 = test: Luminescence Cell-Based Dose Response HTS to Identify Activators of 5'UTR Stem-Loop Driven Prion Protein mRNA Translation in H4 Neuroglioblastoma Cells. [Related pubchem assays: 1829 (Project Summary), 1814 (Primary HTS)]; assay type: functional; details: Homo sapiens
[5] = (§2) Counterscreen for antagonists of the orexin 1 receptor (OX1R; HCRTR1): Fluorescence-based cell-based high throughput dose response assay to identify antagonists of the parental CHO cell line. [Related pubchem assays (depositor defined):AID434989, AID435008, AID463079, AID485270, AID492963, AID492964, AID492965, AID493232, AID504699, AID504701]; assay type: functional
[6] = molecular target: T2, Orexin/Hypocretin receptor type 1; test: as §1, with “Homogeneous Time Resolved Fluorescence (HTRF)-based” for “Fluorescence-based”; assay type: functional
CHO-K1 = test: as §2, with “Homogeneous time resolved fluorescence (HTRF)-based” for “Fluorescence-based”, “cell-based” for “cell-based high throughput”, “CHO-K1” for “CHO”; assay type: functional; details: Cricetulus griseus;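 further: potency for inhibition of ATP-stimulated IP1 production as antagonists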
Orexin receptor type 2 [7] = molecular target: T3, Orexin receptor type 2; test: Counterscreen assay for antagonists of the orexin 1 receptor (OX1R; HCRTR1): Homogeneous Time Resolved Fluorescence (HTRF)-based cell-based dose response assay for antagonists of the orexin 2 receptor (OX2R; HCRTR2), run by assay provider.; assay type: functional
cells [8] = assay type: functional
[9] = molecular target: T4, DNA repair protein RAD52 homolog (Homo sapiens, UniProt P43351); assay type: functional, biochemical
T4 sequence (P43351 whole entry): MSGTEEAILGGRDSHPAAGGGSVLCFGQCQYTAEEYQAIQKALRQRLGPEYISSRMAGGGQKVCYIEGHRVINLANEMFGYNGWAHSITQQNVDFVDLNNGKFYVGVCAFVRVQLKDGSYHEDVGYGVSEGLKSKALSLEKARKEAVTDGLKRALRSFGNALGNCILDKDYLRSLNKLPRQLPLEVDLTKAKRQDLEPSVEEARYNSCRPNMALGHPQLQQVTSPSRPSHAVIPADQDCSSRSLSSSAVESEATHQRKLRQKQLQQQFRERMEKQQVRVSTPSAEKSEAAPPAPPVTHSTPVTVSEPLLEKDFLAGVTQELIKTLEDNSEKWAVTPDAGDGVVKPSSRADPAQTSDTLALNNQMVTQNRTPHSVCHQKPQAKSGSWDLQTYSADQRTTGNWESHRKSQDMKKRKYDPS

[10] = HepG2 cell cytotoxicity, dose response, cytotoxicity control for Shn3 inhibitor project, CellTiter-Glo, cherry-picked (AID 624134); assay type: functional, cell-based
[11] = control 3'UTR Renilla luciferase suppression, dose response, counter-screen for Shn3 inhibitor project, cell-based, Clone20-Shn3RL, cherry-picked (AID 624133); assay type: functional
[12] = Fluorescence-based cell-based high throughput dose response assay for inhibitors of the interaction of nucleotide-binding oligomerization domain containing 2 (NOD2) and the receptor-interacting serine-threonine kinase 2 (RIPK2).; assay type: functional; details: Homo sapiens
[13] = Shn3 3'UTR reporter inhibitors, dose response, cell-based, Clone20 osteoblasts, firefly luciferase, cherry-picked (AID 624132); assay type: functional;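 further: firefly luciferase luminescence from reporter carrying the Shn3 3'UTR in osteoblasts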
[14] = Luminescence Cell-Based Dose Retest to Confirm Inhibitors of Cancer Stem Cells. [Related pubchem assays (depositor defined):AID2717, AID2721]; assay type: functional; details: Homo sapiens
[15] = molecular target: T5, Serine/threonine-protein phosphatase (Candida dubliniensis (strain CD36 / CBS 7987 / NCPF 3949 / NRRLY-17841) (Yeast), UniProt B9W6M3); test: calcineurin pathway inhibitors in yeast reporter, dose response, S. cerevisiae, CDRE-lacZ, luminescence, secondary (AID 2388); assay type: functional, cell-based;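 further: yeast reporter cells carrying a calcineurin-responsive lacZ construct stimulated with calcium chloride; luminescent beta-galactosidase reporter signal in whole cells rather than isolated phosphatase activity; potency for inhibition where a drop in reporter signal means calcineurin blockade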
T5 sequence (B9W6M3 whole entry): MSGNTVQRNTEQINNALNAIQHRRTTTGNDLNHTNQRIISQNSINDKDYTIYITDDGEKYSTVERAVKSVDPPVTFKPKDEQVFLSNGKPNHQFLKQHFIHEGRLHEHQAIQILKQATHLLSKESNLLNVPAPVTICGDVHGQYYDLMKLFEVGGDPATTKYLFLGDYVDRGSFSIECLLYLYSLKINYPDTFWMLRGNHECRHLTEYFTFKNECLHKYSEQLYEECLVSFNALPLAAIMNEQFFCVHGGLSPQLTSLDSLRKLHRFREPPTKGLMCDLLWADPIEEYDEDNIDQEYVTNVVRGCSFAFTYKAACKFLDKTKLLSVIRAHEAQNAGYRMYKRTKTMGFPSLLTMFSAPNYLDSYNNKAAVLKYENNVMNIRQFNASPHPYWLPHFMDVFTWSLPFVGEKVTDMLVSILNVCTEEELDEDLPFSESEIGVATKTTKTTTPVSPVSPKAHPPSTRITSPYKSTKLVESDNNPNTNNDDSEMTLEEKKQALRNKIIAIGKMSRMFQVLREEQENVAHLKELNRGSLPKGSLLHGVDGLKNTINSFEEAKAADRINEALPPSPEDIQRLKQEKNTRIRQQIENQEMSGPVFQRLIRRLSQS

[16] = Luminescence Cell-Based Dose Response HTS to Identify Inhibitors of 5'UTR Stem-Loop Driven Prion Protein mRNA Translation in H4 Neuroglioblastoma Cells. [Related pubchem assays: 1827 (Project Summary), 1813 (Primary HTS)]; assay type: functional
[17] = inhibitors of firefly luciferase expression or activity, dose response, H4 neuroglioma cells, luminescence (AID 1990); assay type: functional, cell-based
Streptococcus = test: Group A Streptococcus viability loss, dose response, counter-screen for streptokinase expression inhibitor project, luminescence, BacTiterGlo (AID 1915); assay type: functional, organism-based;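 further: potency for reduction of bacterial viability or growth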
[18] = NIH-3T3 fibroblast cytotoxicity, dose response, cytotoxicity control, cell-based, fluorescence, Alamar Blue, secondary assay (AID 2327); assay type: functional;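 further: NIH-3T3 mouse fibroblasts cultured with fluconazole at 8 µg/mL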
[19] = molecular target: ATP-dependent molecular chaperone HSP82 (Candida albicans (strain WO-1) (Yeast), UniProt C4YTQ8); test: loss of DOC-induced GRE-beta-galactosidase reporter signal, dose response, Hsp90 inhibitor project, S. cerevisiae, luminescence (AID 2400); assay type: functional, cell-based;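 further: beta-galactosidase luminescence from glucocorticoid response element reporter as proxy for Hsp90 function; inhibitor potency where signal loss means Hsp90 inhibition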
Chain of ATP-dependent molecular chaperone HSP82 (C4YTQ8 whole entry): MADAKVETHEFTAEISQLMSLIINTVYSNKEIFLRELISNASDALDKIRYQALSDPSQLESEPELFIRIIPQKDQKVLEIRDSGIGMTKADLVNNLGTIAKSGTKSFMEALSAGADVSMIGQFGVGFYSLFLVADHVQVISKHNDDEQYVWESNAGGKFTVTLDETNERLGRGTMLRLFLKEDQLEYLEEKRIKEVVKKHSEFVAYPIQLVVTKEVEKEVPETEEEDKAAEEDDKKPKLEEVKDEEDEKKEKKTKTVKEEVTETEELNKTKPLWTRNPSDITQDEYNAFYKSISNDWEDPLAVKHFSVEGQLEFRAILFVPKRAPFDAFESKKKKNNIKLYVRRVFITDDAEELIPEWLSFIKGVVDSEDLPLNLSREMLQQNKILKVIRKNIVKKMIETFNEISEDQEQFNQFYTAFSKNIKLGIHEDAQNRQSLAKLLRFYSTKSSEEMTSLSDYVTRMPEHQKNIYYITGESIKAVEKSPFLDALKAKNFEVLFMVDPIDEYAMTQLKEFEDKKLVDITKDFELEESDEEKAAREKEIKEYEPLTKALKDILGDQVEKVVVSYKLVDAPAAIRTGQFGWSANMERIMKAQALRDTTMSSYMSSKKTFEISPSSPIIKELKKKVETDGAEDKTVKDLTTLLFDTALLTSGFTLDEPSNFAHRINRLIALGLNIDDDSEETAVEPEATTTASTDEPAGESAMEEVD

[20] = C. albicans growth with fluconazole, confirmation, fluorescence, retest (AID 2467); assay type: functional, cell-based
[21] = system: Streptococcus sp. 'group A'; test: growth inhibition of control SK(-) GAS strain, dose response, counter-screen for streptokinase expression inhibitor project, luminescence, kanamycin, BacTiterGlo, confirmation (AID 1900); assay type: functional, organism-based
[22] = inhibitors of SNCA 5'UTR-driven reporter translation, confirmation, H4 neuroglioma cells, luminescence (AID 1988); assay type: functional, cell-based
Paired box protein Pax-8 = Paired box protein Pax-8 (Homo sapiens, UniProt Q06710); test: inhibitors of PAX8-driven TPO luciferase reporter, dose response, RMG-I cells, cherry-pick (AID 687027); assay type: functional, cell-based;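 further: luciferase reporter driven by Pax8 target thyroperoxidase promoter measured by SteadyGlo luminescence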
Chain of Paired box protein Pax-8 (Q06710 whole entry): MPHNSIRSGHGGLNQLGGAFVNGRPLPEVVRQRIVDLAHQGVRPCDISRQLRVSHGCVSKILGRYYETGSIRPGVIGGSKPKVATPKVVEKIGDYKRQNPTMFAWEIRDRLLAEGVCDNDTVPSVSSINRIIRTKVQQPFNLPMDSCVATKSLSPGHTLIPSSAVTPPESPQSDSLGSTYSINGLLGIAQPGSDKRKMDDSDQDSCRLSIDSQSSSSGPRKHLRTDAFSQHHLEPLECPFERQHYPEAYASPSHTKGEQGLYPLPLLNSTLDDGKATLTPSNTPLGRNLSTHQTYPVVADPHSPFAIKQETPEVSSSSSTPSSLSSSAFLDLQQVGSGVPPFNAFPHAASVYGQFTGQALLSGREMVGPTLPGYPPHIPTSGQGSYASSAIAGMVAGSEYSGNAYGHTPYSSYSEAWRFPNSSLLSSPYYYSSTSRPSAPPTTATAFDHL

[23] = cytotoxicity in OVCAR8 ovarian cancer cells, dose response, PAX8 project, cell-based, plate reader, dry powder samples (AID 743197); assay type: functional; details: OVCAR-8
[24] = NIH:OVCAR-3 ovarian cancer cell cytotoxicity, dose response, PAX8 inhibitor project, plate reader, dry powder samples (AID 743044); assay type: functional, cell-based

CNc1nnc(SCC(=O)c2cc(C)n(C3CC3)c2C)s1
IC50 (cells [1]): > 67.5 µM (inactive) | IC50 [2]: > 67.5 µM (inactive)

Nc1nc(-c2sc3nc4c(cc3c2N)CCCC4)nc(N2CCOCC2)n1
IC50 [3]: 5.52 µM (active) | IC50 (Orexin receptor type 2 [4]): > 88.8 µM (inactive) | EC50 (H4): > 120 µM (not active) | IC50 [5]: > 49.8 µM (inactive) | IC50 [6]: 0.797 µM (active) | IC50 (CHO-K1): > 66.2 µM (inactive) | IC50 (Orexin receptor type 2 [7]): > 50 µM (inactive)

Cc1cc(C(=O)NCc2cccc(Cl)c2)c2ccccc2n1
IC50 [3]: 12.6 µM (inactive) | IC50 (Orexin receptor type 2 [4]): > 88.8 µM (inactive) | IC50 [5]: > 49.7 µM (inactive) | IC50 [6]: 0.976 µM (active) | IC50 (CHO-K1): > 66.2 µM (inactive) | IC50 (Orexin receptor type 2 [7]): 7.59 µM (active)

COc1ccccc1C(=O)Nc1nc2cc3c(cc2s1)OCCO3
IC50 [3]: 6.51 µM (active) | IC50 (Orexin receptor type 2 [4]): > 88.8 µM (inactive) | IC50 [5]: > 49.8 µM (inactive) | IC50 [6]: 1.95 µM (active) | IC50 (CHO-K1): > 66.2 µM (inactive) | IC50 (Orexin receptor type 2 [7]): > 50 µM (inactive)

CCOC(=O)c1c(C)nc2c3ccccc3ccn12
IC50 [3]: 32.9 µM (inactive) | IC50 (Orexin receptor type 2 [4]): > 88.8 µM (inactive) | IC50 [5]: > 49.8 µM (inactive) | IC50 (cells [8]): 37.3 µM (active) | IC50 [6]: 3.62 µM (active) | IC50 (CHO-K1): > 66.3 µM (inactive) | IC50 (Orexin receptor type 2 [7]): 30 µM (inactive)

CCOC(=O)c1c(C)n(-c2ccc(C)cc2)c2ccc(OCC(O)CN3CCN(C)CC3)cc12 (configuration not stated)
AC50 [9]: 6.54 µM (active)

CN(CCC#N)c1ccc(/C=C(\C#N)c2ccccn2)cc1
IC50 (cells [1]): > 67.5 µM (inactive) | IC50 [2]: > 0.834 µM (active)

O=[N+]([O-])/C=C/c1cn(Cc2ccc(Cl)cc2)c2ccccc12
AC50 [10]: 5.81 µM (active) | AC50 [11]: 21.2 µM (active) | IC50 [12]: 6.98 µM (active) | AC50 [13]: 8.32 µM (active) | AC50 [14]: 1.88 µM (active)

Cc1cccc(C(=O)CC(=O)c2cc(Cl)ccc2O)c1
EC50 [15]: > 180 µM (inactive) | EC50 [16]: 9.23 µM (active) | EC50 [17]: 8.03 µM (active) | EC50 (Streptococcus): 1.61 µM (active) | EC50 [18]: 34.3 µM (active) | EC50 [19]: 3.18 µM (active) | EC50 [20]: 1.09 µM (active) | EC50 [21]: 1.01 µM (active) | EC50 [22]: 5.25 µM (active)

CCC1(O)CC2CN(CCc3c([nH]c4ccccc34)C(C(=O)OC)(c3cc4c(cc3OC)N(C=O)C3C(O)(C(=O)OC)C(OC(C)=O)C5(CC)C=CCN6CCC43C65)C2)C1 (configuration not stated)
IC50 (cells [1]): > 67.5 µM (inactive) | IC50 [2]: 0.386 µM (active)

N#Cc1cccc(-c2ccc3c(c2)[C@@H]2[C@@H](CCN2C(=O)C2CCCCC2)[C@@H](CO)N3)c1
AC50 (Paired box protein Pax-8): 17.8 µM (active) | AC50 [23]: 61.9 µM (active)

C[C@@H]1CCCCO[C@H](CN(C)Cc2ccc(Cl)c(Cl)c2)[C@H](C)CN([C@@H](C)CO)C(=O)c2cc(NC(=O)Nc3ccc(C(F)(F)F)cc3)ccc2O1
AC50 (Paired box protein Pax-8): 5.49 µM (active) | AC50 [23]: 51.1 µM (active) | AC50 [24]: 20.1 µM (active)
